In the NIST ThermoML archive (doi:10.1016/j.jct.2010.11.007):

Assay: refractive index (Na D-line) (dimensionless); xn = mol fraction of the nth substance listed
Conditions: 101 kPa, Liquid, Standard Abbe refractometry

C=CC(C)(O)CCC=C(C)C (stereo not drawn) [3,7-dimethyl-1,6-octadien-3-ol] + CCCO
refractive index
Conditions	283.15 K	298.15 K	313.15 K	328.15 K
x1 = 0.0533	1.39881	1.39255	1.38616	1.3796
x1 = 0.1051	1.40707	1.40075	1.39427	1.38756
x1 = 0.2014	1.41983	1.41337	1.40675	1.39986
x1 = 0.3032	1.43049	–	–	–
x1 = 0.3049	–	1.42409	1.41728	1.41023
x1 = 0.3869	1.43761	1.43088	1.42395	1.41687
x1 = 0.4929	–	–	–	1.42395
x1 = 0.4951	1.44504	1.4382	1.43113	–
x1 = 0.5917	1.45054	1.44367	1.43657	1.42935
x1 = 0.6895	1.45535	1.4484	1.44114	1.4339
x1 = 0.767	–	–	–	1.4371
x1 = 0.7765	1.45896	1.45193	1.44473	–
x1 = 0.8735	1.46254	1.45549	1.44824	1.44085
x1 = 0.9296	1.46441	1.4573	1.44997	1.44249
x1 = 1	1.4666	1.45946	1.45215	1.44473
